Assay results taken from patent US20160287554A1, “Small Molecule Metal-Activated Protein Inhibition” (University of South Florida, priority 2015, published 2016).
pEC50, pIC50: −log10 of the molar value. Where “and” joins values, the source holds several entries; their conditions need not be identical. Equal values may be shown once.

Target: 20S proteasome (Homo sapiens, UniProt P28074)
Assay: 20S proteasome chymotrypsin-like activity assay, cleavage of suc-leu-leu-val-tyr-AMC (fluorescence), with or without copper chloride
Format: biochemical
Details: for inhibition against the proteasome: one-dose experiments, 10 μM compound in the presence of 1 μM copper
Description: Pro-drug compounds, according to embodiments of the invention, include: 3,4-dihydroxybenzoic acid; galloflavin; 2-{[(carbamoylsulfanyl)acetyl]amino}benzoic acid; 6,7-Dihydroxycoumaranone; 3,6-bis(hydroxymethyl)pyridazin-4(1H)-one; and 4′,5,7-trihydroxyisoflavone, as shown in FIG. 1. These compounds, and analogs thereof, can act individually or can be used in combination. These compounds, and similar compounds, are capable of binding copper ions and facilitating inhibition of the proteasome. These compounds, and similar compounds, are safe and efficacious theranostics and/or drugs to detect and/or treat cancers. These compounds are from the NCI Diversity Set 3. Preliminary identification of these compounds as potential Cu-complexes with the proteasome was conducted using an in silico screening method, according to an embodiment of the invention, for example, with graphic representations of the calculated docking of the pro-drugs of FIG. 1 with copper ion and the proteasome, as shown in FIGS. 2-7. The modeling method indicates the potential of candidates as the pro-drugs, which are tested experimentally to confirm their efficiency using an in vitro experimental assay that tests for inhibition of the chymotrypsin-like activity of the 20S proteasome.
A Beckman Coulter Biomek FX^P Lab Automation Workstation was used for automating the assays. A Perkin Elmer EnVision 2102 multilabel plate reader was used to read the plates by fluorescence measurements. Assays were performed in 384 well black Nunc plates. Each compound (2 μl in DMSO), when tested without copper chloride was added to 28 μl of buffer (50 mM Tris at pH 7.6 and 37° C.), with 20 μM, 10 μl 20S proteasome and 10 μl of suc-leu-leu-val-tyr-AMC as the substrate (purchased from Boston Biochem), and the rate of substrate cleavage by 20S proteasome activity was determined. In the presence of copper, the buffer amount was decreased to 25 μl and 3 μl copper chloride was used for chelation with the compound for testing in the presence of copper. To allow chelation of copper to the compound, the plate was allowed to sit for 40 minutes with gentle shaking. The overall volume per well was held at 50 μL. The compounds and substrate were initially dissolved in 100% DMSO, but the final concentration of DMSO per well plate was reduced to less than 2% following subsequent dilutions. Plates were incubated at 37° C. for 2 hours. For dose response curves, the concentrations of copper chloride and a pro-drug compound, were varied to get optimal activity. The plates were read with 340 nm excitation and 460 nm emission using the plate reader. All liquid transfers to the plates were automated using the Biomek workstation.

[1] = NSC 37408 0.01 uM, CuCl2 0.01 uM
[2] = NSC 37408 0.01 uM, CuCl2 0.05 uM
[3] = NSC 37408 0.01 uM, CuCl2 0.1 uM
[4] = NSC 37408 0.01 uM, CuCl2 0.5 uM
[5] = NSC 37408 0.02 uM, CuCl2 0.01 uM
[6] = NSC 37408 0.02 uM, CuCl2 0.05 uM
[7] = NSC 37408 0.02 uM, CuCl2 0.1 uM
[8] = NSC 37408 0.02 uM, CuCl2 0.5 uM
[9] = NSC 37408 0.2 uM, CuCl2 0.01 uM
[10] = NSC 37408 0.2 uM, CuCl2 0.05 uM
[11] = CuCl2 0.01 uM alone (NSC 37408 0 uM)
[12] = CuCl2 0.05 uM alone (NSC 37408 0 uM)
[13] = CuCl2 0.1 uM alone (NSC 37408 0 uM)
[14] = CuCl2 0.5 uM alone (NSC 37408 0 uM)
[15] = CuCl2 1 uM alone (NSC 37408 0 uM)
[16] = CuCl2 10 uM alone (NSC 37408 0 uM)

Compound: 6,7-dihydroxycoumaranone [NSC 37408]
- % Activity (NSC 37408 0.01 uM, CuCl2 0 uM): 112.6213% and 99.65%
- Average % inhibition (NSC 37408 0.01 uM, CuCl2 0 uM): −6.135%
- % Activity [1]: 90.87% and 88.81%
- Average % inhibition [1]: 10.1605%
- % Activity [2]: 86.05% and 85.2009%
- Average % inhibition [2]: 14.38%
- % Activity [3]: 72.84% and 76.28%
- Average % inhibition [3]: 25.44%
- % Activity [4]: 54.66% and 61.76%
- Average % inhibition [4]: 41.79%
- % Activity (NSC 37408 0.01 uM, CuCl2 1 uM): 44.58% and 55.7695%
- Average % inhibition (NSC 37408 0.01 uM, CuCl2 1 uM): 49.82%
- % Activity (NSC 37408 0.01 uM, CuCl2 10 uM): 19.49% and 20.5%
- Average % inhibition (NSC 37408 0.01 uM, CuCl2 10 uM): 80.0042%
- % Activity (NSC 37408 0.02 uM, CuCl2 0 uM): 96.06% and 94.02%
- Average % inhibition (NSC 37408 0.02 uM, CuCl2 0 uM): 4.963%
- % Activity [5]: 88.1% and 90.5198%
- Average % inhibition [5]: 10.69%
- % Activity [6]: 68.1% and 55.31%
- Average % inhibition [6]: 38.29%
- % Activity [7]: 65.88% and 61.48%
- Average % inhibition [7]: 36.32%
- % Activity [8]: 51.0064% and 59.2161%
- Average % inhibition [8]: 44.89%
- % Activity (NSC 37408 0.02 uM, CuCl2 1 uM): 56.05% and 43.65%
- Average % inhibition (NSC 37408 0.02 uM, CuCl2 1 uM): 50.1481%
- % Activity (NSC 37408 0.02 uM, CuCl2 10 uM): 17.83% and 17.5873%
- Average % inhibition (NSC 37408 0.02 uM, CuCl2 10 uM): 82.29%
- % Activity (NSC 37408 0.2 uM, CuCl2 0 uM): 105.3933% and 82.75%
- Average % inhibition (NSC 37408 0.2 uM, CuCl2 0 uM): 5.927%
- % Activity [9]: 94.36% and 76.52%
- Average % inhibition [9]: 14.5582%
- % Activity [10]: 85.2901% and 82.94%
- Average % inhibition [10]: 15.89%
- % Activity (NSC 37408 0.2 uM, CuCl2 0.1 uM): 73.85% and 60.05%
- Average % inhibition (NSC 37408 0.2 uM, CuCl2 0.1 uM): 33.05%
- % Activity (NSC 37408 0.2 uM, CuCl2 0.5 uM): 64.18% and 61.99%
- Average % inhibition (NSC 37408 0.2 uM, CuCl2 0.5 uM): 36.91%
- % Activity (NSC 37408 0.2 uM, CuCl2 1 uM): 56.85% and 54.95%
- Average % inhibition (NSC 37408 0.2 uM, CuCl2 1 uM): 44.1%
- % Activity (NSC 37408 0.2 uM, CuCl2 10 uM): 19.46% and 18.13%
- Average % inhibition (NSC 37408 0.2 uM, CuCl2 10 uM): 81.2011%
- % Activity (NSC 37408 1 uM, CuCl2 0 uM): 103.1804% and 90.54%
- Average % inhibition (NSC 37408 1 uM, CuCl2 0 uM): 3.138%
- % Activity (NSC 37408 1 uM, CuCl2 0.01 uM): 72.59% and 75.01%
- Average % inhibition (NSC 37408 1 uM, CuCl2 0.01 uM): 26.2%
- % Activity (NSC 37408 1 uM, CuCl2 0.05 uM): 66.45% and 67.81%
- Average % inhibition (NSC 37408 1 uM, CuCl2 0.05 uM): 32.87%
- % Activity (NSC 37408 1 uM, CuCl2 0.1 uM): 65.45% and 59.72%
- Average % inhibition (NSC 37408 1 uM, CuCl2 0.1 uM): 37.4167%
- % Activity (NSC 37408 1 uM, CuCl2 0.5 uM): 56.12% and 54.11%
- Average % inhibition (NSC 37408 1 uM, CuCl2 0.5 uM): 44.88%
- % Activity (NSC 37408 1 uM, CuCl2 1 uM): 57.76% and 41.6248%
- Average % inhibition (NSC 37408 1 uM, CuCl2 1 uM): 50.31%
- % Activity (NSC 37408 1 uM, CuCl2 10 uM): 14.11% and 16.23%
- Average % inhibition (NSC 37408 1 uM, CuCl2 10 uM): 84.83%
- % Activity (NSC 37408 2 uM, CuCl2 0 uM): 97.24% and 74.12%
- Average % inhibition (NSC 37408 2 uM, CuCl2 0 uM): 14.32%
- % Activity (NSC 37408 2 uM, CuCl2 0.01 uM): 87.55% and 75.89%
- Average % inhibition (NSC 37408 2 uM, CuCl2 0.01 uM): 18.28%
- % Activity (NSC 37408 2 uM, CuCl2 0.05 uM): 61.5% and 61.91%
- Average % inhibition (NSC 37408 2 uM, CuCl2 0.05 uM): 38.3%
- % Activity (NSC 37408 2 uM, CuCl2 0.1 uM): 62.98% and 55.45%
- Average % inhibition (NSC 37408 2 uM, CuCl2 0.1 uM): 40.79%
- % Activity (NSC 37408 2 uM, CuCl2 0.5 uM): 50.79% and 47.45%
- Average % inhibition (NSC 37408 2 uM, CuCl2 0.5 uM): 50.8784%
- % Activity (NSC 37408 2 uM, CuCl2 1 uM): 41.16% and 35.42%
- Average % inhibition (NSC 37408 2 uM, CuCl2 1 uM): 61.71%
- % Activity (NSC 37408 2 uM, CuCl2 10 uM): 15.32% and 15.04%
- Average % inhibition (NSC 37408 2 uM, CuCl2 10 uM): 84.82%
- % Activity (NSC 37408 20 uM, CuCl2 0 uM): 99.79% and 91.1158%
- Average % inhibition (NSC 37408 20 uM, CuCl2 0 uM): 4.548%
- % Activity (NSC 37408 20 uM, CuCl2 0.01 uM): 71.91% and 89.68%
- Average % inhibition (NSC 37408 20 uM, CuCl2 0.01 uM): 19.21%
- % Activity (NSC 37408 20 uM, CuCl2 0.05 uM): 54.92% and 76.06%
- Average % inhibition (NSC 37408 20 uM, CuCl2 0.05 uM): 34.51%
- % Activity (NSC 37408 20 uM, CuCl2 0.1 uM): 49.04% and 30.46%
- Average % inhibition (NSC 37408 20 uM, CuCl2 0.1 uM): 60.25%
- % Activity (NSC 37408 20 uM, CuCl2 0.5 uM): 36.6% and 25.36%
- Average % inhibition (NSC 37408 20 uM, CuCl2 0.5 uM): 69.02%
- % Activity (NSC 37408 20 uM, CuCl2 1 uM): 25.4789% and 22.77%
- Average % inhibition (NSC 37408 20 uM, CuCl2 1 uM): 75.88%
- % Activity (NSC 37408 20 uM, CuCl2 10 uM): 7.426% and 7.089%
- Average % inhibition (NSC 37408 20 uM, CuCl2 10 uM): 92.74%
- pIC50 (dose-response assay, in presence of 100 nM copper (FIG. 13)): 5.52
- capacity to inhibit the proteasome compared with copper chloride alone (first round of screening (Table 1), compound complexed with copper): better capacity to inhibit the proteasome than copper chloride alone
- inhibition against the proteasome: superior inhibition
- percent inhibition in the presence of copper versus compound alone (sub-micromolar copper, triplicate (FIG. 13)): dramatic improvement of percent inhibition
- inhibition in the absence of copper ion (various concentrations, no copper (FIG. 10)): little if any inhibition

Compound: [Cl][Cu][Cl] [CuCl2, copper chloride, reference compound]
- % Activity [11]: 116.1267% and 79.27%
- Average % inhibition [11]: 2.302%
- % Activity [12]: 92.35% and 88.54%
- Average % inhibition [12]: 9.555%
- % Activity [13]: 82.9012% and 74.33%
- Average % inhibition [13]: 21.39%
- % Activity [14]: 50.13% and 54.8853%
- Average % inhibition [14]: 47.49%
- % Activity [15]: 65.79% and 56.9%
- Average % inhibition [15]: 38.65%
- % Activity [16]: 21.19% and 16.25%
- Average % inhibition [16]: 81.28%
- pEC50 (copper chloride alone, dose response (FIG. 11), read-out: EC50 of inhibitory effect on the % activity of the proteasome): 6.16
- inhibitory activity of copper absent the pro-drug (sub-micromolar copper concentration (FIG. 13)): no significant inhibitory activity

Compound: NC(=O)SCC(=O)Nc1ccccc1C(=O)O [compound 13345, 2-{[(carbamoylsulfanyl)acetyl]amino}benzoic acid]
- inhibition against the proteasome: superior inhibition

Compound: O=C(O)c1ccc(O)c(O)c1 [compound 16631, 3,4-dihydroxybenzoic acid]
- inhibition against the proteasome: superior inhibition

Compound: O=c1c(-c2ccc(O)cc2)coc2cc(O)cc(O)c12 [compound 36586, 4′,5,7-trihydroxyisoflavone]
- inhibition against the proteasome: superior inhibition

Compound: O=c1oc2c(cc1O)oc(=O)c1cc(O)c(O)c(O)c12 [compound 107022, galloflavin]
- inhibition against the proteasome: superior inhibition

Compound: O=c1cc(CO)[nH]nc1CO [compound 166900, 3,6-bis(hydroxymethyl)pyridazin-4(1H)-one]
- inhibition against the proteasome: superior inhibition
